Tests used:
Assay in all cases: Kinase selectivity, DiscoverX scanMAX Kinase assay panel (% control)
Type in all cases: binding
[1] = biological target: T1, kinases of the scanMAX Kinase assay panel (Homo sapiens, UniProt Q6ZN16); conditions: MAP3K15; 1 uM
T1 construct: purchased DiscoverX Co. (contract measurement) scanMAX Kinase assay panel
T1 sequence (Q6ZN16 1-1313): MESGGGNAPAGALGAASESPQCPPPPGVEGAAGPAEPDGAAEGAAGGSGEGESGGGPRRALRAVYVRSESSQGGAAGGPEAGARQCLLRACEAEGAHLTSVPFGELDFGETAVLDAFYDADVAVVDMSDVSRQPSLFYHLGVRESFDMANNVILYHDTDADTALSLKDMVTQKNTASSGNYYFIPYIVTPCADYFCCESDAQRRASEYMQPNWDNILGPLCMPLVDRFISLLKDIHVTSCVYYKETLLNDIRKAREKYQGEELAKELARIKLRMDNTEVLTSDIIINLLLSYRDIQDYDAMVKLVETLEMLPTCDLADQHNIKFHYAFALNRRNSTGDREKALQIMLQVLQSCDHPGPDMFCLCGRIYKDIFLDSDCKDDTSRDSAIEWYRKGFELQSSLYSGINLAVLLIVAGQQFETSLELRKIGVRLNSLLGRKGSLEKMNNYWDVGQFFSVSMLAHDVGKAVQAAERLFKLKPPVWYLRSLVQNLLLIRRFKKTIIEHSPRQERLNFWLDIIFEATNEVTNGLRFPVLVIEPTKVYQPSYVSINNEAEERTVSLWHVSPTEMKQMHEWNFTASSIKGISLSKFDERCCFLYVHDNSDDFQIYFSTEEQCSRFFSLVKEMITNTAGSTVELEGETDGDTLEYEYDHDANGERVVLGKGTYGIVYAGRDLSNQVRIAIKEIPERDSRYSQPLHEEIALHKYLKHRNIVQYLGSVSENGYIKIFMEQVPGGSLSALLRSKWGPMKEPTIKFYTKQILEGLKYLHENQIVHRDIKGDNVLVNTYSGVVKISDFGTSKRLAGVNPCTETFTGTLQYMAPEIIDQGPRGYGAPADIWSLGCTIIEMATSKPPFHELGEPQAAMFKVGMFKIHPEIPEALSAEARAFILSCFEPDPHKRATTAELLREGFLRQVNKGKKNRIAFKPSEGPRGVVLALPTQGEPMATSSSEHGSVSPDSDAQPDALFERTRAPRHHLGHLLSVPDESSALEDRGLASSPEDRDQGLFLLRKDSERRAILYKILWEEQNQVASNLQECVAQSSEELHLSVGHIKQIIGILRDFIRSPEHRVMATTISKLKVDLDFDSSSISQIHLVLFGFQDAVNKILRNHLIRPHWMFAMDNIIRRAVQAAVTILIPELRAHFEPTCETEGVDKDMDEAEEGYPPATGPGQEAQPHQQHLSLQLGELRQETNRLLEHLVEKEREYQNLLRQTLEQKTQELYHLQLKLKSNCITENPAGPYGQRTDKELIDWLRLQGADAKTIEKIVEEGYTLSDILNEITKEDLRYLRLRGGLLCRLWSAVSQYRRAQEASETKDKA
Method in brief: (§1)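 Percent of control computed as (compound − positive control)/(negative control − positive control) × 100, DMSO defining 100% and positive control 0%. Each panel kinase exposed to 1 uM compound; values under 35% taken to mean the compound acts on that kinase.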

[2] = biological target: T2, kinases of the scanMAX Kinase assay panel (Homo sapiens, UniProt Q9BX84); conditions: kinase TRPM6; 1 uM in DMSO
T2 construct: purchased DiscoverX Co. (contract measurement) scanMAX Kinase assay panel
T2 sequence (Q9BX84 whole entry): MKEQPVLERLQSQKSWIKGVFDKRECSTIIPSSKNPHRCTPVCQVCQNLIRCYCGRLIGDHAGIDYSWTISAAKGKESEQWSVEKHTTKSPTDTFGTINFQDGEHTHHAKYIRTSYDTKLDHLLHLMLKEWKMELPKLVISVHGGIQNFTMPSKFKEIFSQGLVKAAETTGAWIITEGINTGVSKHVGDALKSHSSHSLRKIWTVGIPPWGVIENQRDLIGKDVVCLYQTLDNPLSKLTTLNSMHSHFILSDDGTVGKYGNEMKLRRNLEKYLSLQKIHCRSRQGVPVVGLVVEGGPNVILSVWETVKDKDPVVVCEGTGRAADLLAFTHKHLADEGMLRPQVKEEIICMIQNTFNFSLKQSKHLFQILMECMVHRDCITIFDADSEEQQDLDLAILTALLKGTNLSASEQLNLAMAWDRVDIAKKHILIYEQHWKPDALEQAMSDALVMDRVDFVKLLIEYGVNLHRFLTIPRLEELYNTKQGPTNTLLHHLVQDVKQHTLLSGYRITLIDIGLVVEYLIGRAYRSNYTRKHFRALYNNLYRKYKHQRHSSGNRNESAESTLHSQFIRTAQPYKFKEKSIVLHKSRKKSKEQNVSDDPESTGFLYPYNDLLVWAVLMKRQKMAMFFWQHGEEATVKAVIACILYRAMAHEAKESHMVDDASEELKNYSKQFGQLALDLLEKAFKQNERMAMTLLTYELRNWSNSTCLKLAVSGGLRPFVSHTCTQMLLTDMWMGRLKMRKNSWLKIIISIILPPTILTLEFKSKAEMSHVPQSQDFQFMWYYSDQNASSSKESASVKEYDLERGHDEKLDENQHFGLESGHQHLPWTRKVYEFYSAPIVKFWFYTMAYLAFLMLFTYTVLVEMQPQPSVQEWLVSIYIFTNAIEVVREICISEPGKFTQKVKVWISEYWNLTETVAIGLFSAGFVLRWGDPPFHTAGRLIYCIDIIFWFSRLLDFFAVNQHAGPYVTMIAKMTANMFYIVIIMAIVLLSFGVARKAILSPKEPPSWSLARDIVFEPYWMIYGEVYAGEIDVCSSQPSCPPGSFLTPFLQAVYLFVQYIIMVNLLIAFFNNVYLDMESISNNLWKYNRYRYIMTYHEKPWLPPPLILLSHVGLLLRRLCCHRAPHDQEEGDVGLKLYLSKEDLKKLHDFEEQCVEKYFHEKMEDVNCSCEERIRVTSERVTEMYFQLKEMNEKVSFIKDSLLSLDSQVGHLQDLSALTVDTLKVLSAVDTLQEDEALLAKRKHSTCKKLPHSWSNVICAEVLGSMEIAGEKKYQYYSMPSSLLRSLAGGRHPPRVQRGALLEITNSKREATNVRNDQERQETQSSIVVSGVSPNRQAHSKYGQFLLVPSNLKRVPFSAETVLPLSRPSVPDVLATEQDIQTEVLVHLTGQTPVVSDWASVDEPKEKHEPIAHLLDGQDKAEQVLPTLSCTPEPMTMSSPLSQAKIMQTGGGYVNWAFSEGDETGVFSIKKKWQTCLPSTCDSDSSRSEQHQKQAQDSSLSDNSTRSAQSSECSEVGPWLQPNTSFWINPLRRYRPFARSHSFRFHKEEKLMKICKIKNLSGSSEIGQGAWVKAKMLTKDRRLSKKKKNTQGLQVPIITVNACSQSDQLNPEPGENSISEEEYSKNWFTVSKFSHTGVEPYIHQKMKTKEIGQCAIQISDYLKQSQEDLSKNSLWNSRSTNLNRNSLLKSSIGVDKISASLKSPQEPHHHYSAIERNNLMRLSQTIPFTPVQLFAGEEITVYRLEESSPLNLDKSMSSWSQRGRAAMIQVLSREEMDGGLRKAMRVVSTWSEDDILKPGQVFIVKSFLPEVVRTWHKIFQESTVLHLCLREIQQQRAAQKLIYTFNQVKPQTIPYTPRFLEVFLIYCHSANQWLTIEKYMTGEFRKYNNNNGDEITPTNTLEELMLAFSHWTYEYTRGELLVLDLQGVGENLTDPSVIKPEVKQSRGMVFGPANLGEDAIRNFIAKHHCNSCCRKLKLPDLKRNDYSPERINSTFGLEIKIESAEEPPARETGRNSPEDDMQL
Method in brief: as §1

[3] = biological target: T3, kinases of the scanMAX Kinase assay panel (Homo sapiens, UniProt Q99759); conditions: MAP3K3; 1 uM
T3 construct: purchased DiscoverX Co. (contract measurement) scanMAX Kinase assay panel
T3 sequence (Q99759 1-626): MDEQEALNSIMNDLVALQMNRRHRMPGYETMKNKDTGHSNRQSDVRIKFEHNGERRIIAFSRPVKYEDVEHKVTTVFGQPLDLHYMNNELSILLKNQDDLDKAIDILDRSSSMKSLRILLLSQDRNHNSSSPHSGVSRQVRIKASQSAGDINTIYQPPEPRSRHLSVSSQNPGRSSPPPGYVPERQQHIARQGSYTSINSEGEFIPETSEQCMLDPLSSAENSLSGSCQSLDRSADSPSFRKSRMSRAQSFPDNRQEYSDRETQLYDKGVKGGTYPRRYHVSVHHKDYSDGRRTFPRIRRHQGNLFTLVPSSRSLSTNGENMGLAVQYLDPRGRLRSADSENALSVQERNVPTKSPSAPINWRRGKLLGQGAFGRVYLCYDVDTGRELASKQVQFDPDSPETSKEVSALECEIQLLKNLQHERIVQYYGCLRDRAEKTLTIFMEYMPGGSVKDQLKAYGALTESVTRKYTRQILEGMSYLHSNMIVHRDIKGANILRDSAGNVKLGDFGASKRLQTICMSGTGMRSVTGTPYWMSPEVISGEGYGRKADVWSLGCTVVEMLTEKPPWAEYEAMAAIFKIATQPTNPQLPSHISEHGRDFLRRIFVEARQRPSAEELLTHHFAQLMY
Method in brief: as §1

[4] = biological target: T4, kinases of the scanMAX Kinase assay panel (Homo sapiens, UniProt P53355); conditions: DAPK1; 1 uM
T4 construct: purchased DiscoverX Co. (contract measurement) scanMAX Kinase assay panel
T4 sequence (P53355 whole entry): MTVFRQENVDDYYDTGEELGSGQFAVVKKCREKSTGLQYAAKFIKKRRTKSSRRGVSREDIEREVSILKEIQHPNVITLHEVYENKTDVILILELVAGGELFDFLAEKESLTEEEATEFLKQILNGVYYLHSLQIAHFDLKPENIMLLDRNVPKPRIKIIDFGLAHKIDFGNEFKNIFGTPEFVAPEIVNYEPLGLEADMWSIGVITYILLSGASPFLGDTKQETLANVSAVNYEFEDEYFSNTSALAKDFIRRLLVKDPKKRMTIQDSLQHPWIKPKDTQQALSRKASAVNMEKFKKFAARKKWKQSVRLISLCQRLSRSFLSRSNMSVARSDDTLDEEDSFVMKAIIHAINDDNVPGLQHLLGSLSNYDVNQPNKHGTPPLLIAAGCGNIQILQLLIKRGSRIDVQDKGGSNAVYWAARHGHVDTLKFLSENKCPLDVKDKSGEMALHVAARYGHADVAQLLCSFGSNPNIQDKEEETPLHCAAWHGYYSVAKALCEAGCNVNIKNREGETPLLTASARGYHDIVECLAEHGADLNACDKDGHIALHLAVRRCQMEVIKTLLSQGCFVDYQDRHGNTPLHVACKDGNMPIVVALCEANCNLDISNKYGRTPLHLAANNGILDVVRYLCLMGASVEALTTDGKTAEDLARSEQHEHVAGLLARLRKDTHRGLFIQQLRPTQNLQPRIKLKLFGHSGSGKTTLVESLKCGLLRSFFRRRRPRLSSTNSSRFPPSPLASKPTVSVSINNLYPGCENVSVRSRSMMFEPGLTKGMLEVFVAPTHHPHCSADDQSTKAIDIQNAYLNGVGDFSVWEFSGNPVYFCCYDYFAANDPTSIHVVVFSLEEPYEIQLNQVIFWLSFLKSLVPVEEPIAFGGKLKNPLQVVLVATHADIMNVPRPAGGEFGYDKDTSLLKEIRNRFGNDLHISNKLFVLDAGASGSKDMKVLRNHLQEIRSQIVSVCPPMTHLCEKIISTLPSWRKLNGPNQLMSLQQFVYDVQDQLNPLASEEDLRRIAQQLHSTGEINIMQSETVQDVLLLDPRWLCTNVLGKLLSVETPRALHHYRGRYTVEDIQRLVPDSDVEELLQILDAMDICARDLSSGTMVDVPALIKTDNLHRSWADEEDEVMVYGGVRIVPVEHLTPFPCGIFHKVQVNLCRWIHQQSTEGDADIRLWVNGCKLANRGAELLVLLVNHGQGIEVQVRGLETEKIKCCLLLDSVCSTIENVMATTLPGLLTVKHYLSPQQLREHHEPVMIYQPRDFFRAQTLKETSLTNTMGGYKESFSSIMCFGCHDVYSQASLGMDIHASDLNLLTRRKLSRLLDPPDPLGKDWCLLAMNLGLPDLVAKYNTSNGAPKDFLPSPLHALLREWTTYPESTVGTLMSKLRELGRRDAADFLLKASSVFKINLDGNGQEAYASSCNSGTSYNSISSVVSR
Method in brief: as §1

Compound | remaining binding at 1 µM [1] | remaining binding at 1 µM [2] | remaining binding at 1 µM [3] | remaining binding at 1 µM [4]
CC1(Nc2nc(Nc3cnn([C@H]4CCN(C5COC5)C[C@@H]4F)c3Cl)nc3[nH]cc(C#N)c23)CC1 [Example 52, 2-((5-chloro-1-((3S,4S)-3-fluoro-1-(oxetane-3-yl)piperidine-4-yl)-1H-pyrazole-4-yl)amino)((1-methylcyclopropyl)amino)-7H-pyrrolo[2,3-d]pyrimidine-5-carbonitrile] | 27% | 93% | 0.1% | 12%
CNc1nc(Nc2ccc(C(=O)N3CCOCC3)cc2OC)nc2[nH]cc(C#N)c12 [Example 1, 2-((2-methoxy-4-(morpholine-4-carbonyl)phenyl)amino)-4-(methylamino)-7H-pyrrolo[2,3-d]pyrimidine-5-carbonitrile] | 35% | 88% | 98% | 8.5%
CCNc1nc(Nc2ccc(C(=O)N3CCC(N4CCOCC4)CC3)cc2OC)nc2[nH]cc(C(F)(F)F)c12 [Example 104, (4-((4-(ethylamino)-5-(trifluoromethyl)-7H-pyrrolo[2,3-d]pyrimidine-2-yl)amino)-3-methoxyphenyl)(4-morpholinopiperidine-1-yl)methanone] | 61% | 98% | 87% | 49%

Reference: patent US11208412B2 (DAEGU-GYEONGBUK MEDICAL INNOVATION FOUNDATION, priority 2017, dated 2021)
